# According to patent US20160081312A1, “MODEL OF ALZHEIMER'S DISEASE” (priority 2013, published 2016):
# B1: IL1-Ra: Rat recombinant IL-1 receptor antagonist, R&D systems (protein, UniProt P25086 27-178, looked up)
# Interleukin-1 receptor …: HPAGKRPCKMQAFRIWDTNQKTFYLRNNQLIAGYLQGPNTKLEEKIDMVPIDFRNVFLGIHGGKLCLSCVKSGDDTKLQLEEVNITDLNKNKEEDKRFTFIRSETGPTTSFESLACPGWFLCTTLEADHPVSLTNTPKEPCTVTKFYFQEDQ
# Columns and labels:
# [1] = system: APP; assay: APP level in cultured rat neurons and astrocytes; assay type: cell-based, wistar rat; conditions: memantine 5 μM, donepezil 10 μM, docosahexaenoic acid 10 μM; for Fold reduction in APP: metal mixture-induced, rat astrocytes and neurons, α-tocopherol 10 μM; for effect on levels of APP in the cellular model of AD: Vitamin E 10 μM
# Procedure: (§1) The pregnant wistar rats were sacrificed by cervical dislocation and the embryos were removed on the 16th day of gestation. The embryonic brain tissues were mechanically dissociated into individual cells in dissection media containing Glucose (1M), sucrose (1 M), HEPES Buffer (1M) and Hank's salt (1×). The resulting cells were centrifuged (1,500 rpm, 5 min), resuspended in NEUROBASAL medium containing B-27 supplement (Invitrogen, Carlsbad, Calif.), L-glutamine (0.5 mM), penicillin (100 U/ml) and streptomycin (100 μg/ml) and plated into 60 mm dishes. The culture media was changed every 2 days.
# (§2) The astrocytes from rat brain were isolated and cultured. Briefly, prefrontal cortices of 1-day-old wistar rats were dissected out and digested with trypsin for 10 min at 37° C. A single cell suspension was obtained by triturating, and the cells were seeded onto poly-L-lysine (100 μg/ml)-coated plates. The cultures were maintained in DMEM/F12 with 10% heat-inactivated fetal bovine serum, 100 U/ml penicillin, and […] streptomycin. The confluent cells were rinsed twice with serum-free media and then detached with 0.25% trypsin with ethylenediaminetetraacetic acid and sub-cultured.
# (§3) The astrocytes and neurons were grown to 80% confluence, pre-incubated in reduced serum (0.5% fetal bovine serum [FBS]) medium for 2 h, and then treated with a mixture of As, Cd, and Pb (Group 1 and 2, Table 2 for neurons, and Table 3 for astrocytes) in the form of NaAsO2, CdCl2 and Pb(C2H3O2)2, respectively in Milli Q water for 16 h, and incubated in a humidified tissue culture incubator at 37° C. with 5% CO2-95% air. The NaAsO2, and CdCl2 readily dissolved in water, while Pb(C2H3O2)2 was dissolved by adding 0.043% acetic acid in water. To identify the synergistic nature, the astrocytes and neurons were treated with metal mixture as well as individual metals (Group 1-5 of Table 2 for neurons, and Table 3 for astrocytes).
# (§4) The astrocytes and neurons were treated, washed with PBS and suspended in 100 μl of CelLytic™ MT Cell Lysis Reagent protease inhibitor cocktail (a mixture of 4-(2-aminoethyl)benzenesulfonyl fluoride, pepstatinA, E-64, bestatin, leupeptin, and aprotinin)] and kept on ice for 20 min. The cells were homogenized using a Teflon homogenizer and centrifuged at 15,000 rpm for 30 min at 4° C., and the supernatant was collected. SDS-PAGE and western blotting was done with APP (1:1000), Aβ-40 (1:1000), Aβ-42 (1:1000), IL-1α(1:1000), IL-1β (1:1000) and IL-1R1. […] The samples were detected by chemiluminescence with super signal west femto max substrate. Relative expression of each protein was determined by densitometric quantification of blots using VersaDoc Gel Imaging System (BioRad, Hercules, CF). […]
# [2] = system: Aβ; assay: Aβ level in cultured rat neurons and astrocytes; assay type: cell-based, wistar rat; conditions: memantine 5 μM, donepezil 10 μM, docosahexaenoic acid 10 μM; for Fold reduction in Aβ: metal mixture-induced, rat astrocytes and neurons, α-tocopherol 10 μM; for effect on levels of Aβ in the cellular model of AD: Vitamin E 10 μM
# Procedure: as §1, §2, §3, §4
# [3] = system: APP; assay: APP level in rat brain cortex and hippocampus, western blotting; assay type: in vivo, wistar rat
# Procedure: (§5) All animal-handling procedures were carried out in accordance with the current regulations of the Indian Institute of Toxicology Research Animal Ethics Committee, and with its prior approval for using the animals. The pregnant female wistar rats were housed in a 12-h […] cycle environment with ad libitum diet and water. The rats were divided into six groups (n=30 per group), gavage-treated with the metal mixture (Table 1). The metal mixture treatment was at two concentrations (1× and 10×; Groups 1-3, Table 1) for dose-dependent study. To identify the synergistic nature, the animals were treated in mixture as well as individually with the metals (Group 1-6 of Table 1). The heavy metals were As, Cd and Pb, fed in the form of NaAsO2, CdCl2 and Pb(C2H3O2)2, respectively, in Milli Q water. The NaAsO2, and CdCl2 readily dissolved in water, while Pb(C2H3O2)2 was dissolved by adding 0.043% acetic acid in water. The dams (pregnant rats and lactating mother rats) were daily treated with the metals in water from gestation day 5 (G-05) until the pups weaned (postnatal day-21, P-21). From P-22, the postnatal rats were directly treated with the metals until P-90. The tissues were collected at P-24, P-60 or P-90. The male rats were selected for the study, and rats from separate litters served as independent subjects.
# (§6) Tissues of the cerebral cortex and hippocampus from five to seven postnatal wistar rats were harvested, snap-frozen in liquid nitrogen, and stored at −80° C. until further investigation. SDS-PAGE and western blotting was performed with APP (1:1000), Aβ-40 (1:1000), Aβ-42 (1:1000), APP-CTF-β (1:1000), presenilin (1:1000), IL-1α (1:1000), IL-1β (1:1000) and IL-1R1 (1:1000), RAGE (1:1000) and pGP (1:1000). […] The samples were detected by chemiluminescence with super signal west femto max substrate. Relative expression of each protein was determined by densitometric quantification of blots using VersaDoc Gel Imaging System (BioRad, Hercules, CF). […]
# [4] = system: Aβ-42; assay: Aβ-42 level in rat brain cortex and hippocampus, western blotting; assay type: in vivo, wistar rat
# Procedure: as §5, §6
# [5] = system: Aβ-40; assay: Aβ1-40 level in rat cortex and hippocampus, ELISA; assay type: in vivo, wistar rat
# Procedure: as §5
# [6] = memantine 10 mg/kg body weight, donepezil 1.5 mg/kg body weight
# [7] = metal mixture-induced, rat brain, two week treatment, memantine 10 mg/kg, donepezil 1.5 mg/kg with 10X-MM in P-90 rats
# [8] = hippocampal insertion, once at P-90 in 10X-MM-treated rats, dissected after 10 days
molecule,measurement,setting,value
CC/C=C\C/C=C\C/C=C\C/C=C\C/C=C\C/C=C\CCC(=O)O [Docosahexaenoic acid],Fold reduction in APP,[1],1.25 ± 0.0265 fold
same,Fold reduction in Aβ,[2],2.3 ± 0.0853 fold
Cc1c(C)c2c(c(C)c1O)CC[C@@](C)(CCC[C@H](C)CCC[C@H](C)CCCC(C)C)O2 [α-tocopherol],effect on levels of APP in the cellular model of AD,[1],suppressed
same,effect on levels of Aβ in the cellular model of AD,[2],suppressed
CC12CC3CC(C)(C1)CC(N)(C3)C2 [Memantine],effect on APP in the non-transgenic wistar rat model of AD,[3]; [6],suppress
same,Fold reduction in APP,[3]; [7],1.69 ± 0.0510 fold
same,effect on levels of APP in the cellular model of AD,[1],suppressed
same,Fold reduction in APP,[1],1.3 ± 0.0392 fold
same,effect on levels of Aβ in the cellular model of AD,[2],suppressed
same,Fold reduction in Aβ,[2],1.4 ± 0.052 fold
same,effect on Aβ1-42 in the non-transgenic wistar rat model of AD,[4]; [6],suppress
same,fold reduction in Aβ-42,[4]; [7],2.42 ± 0.0143 fold
same,effect on Aβ1-40 in the non-transgenic wistar rat model of AD,[5]; [6],suppress
same,fold reduction in Aβ-40,[5]; [7],2.54 ± 0.0099 fold
B1,"effect on APP in As, Cd and Pb-mixture treated rat brain",[3]; [8],suppressed
same,"effect on Aβ1-42 in As, Cd and Pb-mixture treated rat brain",[4]; [8],suppressed
